# According to PubChem BioAssay AID2060492 (Molecular Pharmacology Branch, DTP, NCI, 2025):
# pIC50: −log10 of the molar value.
# Tested on: 695427-040-R-J1-PDC complex spheroids, viability percent T/C
# Experiment: Anticancer human tumor 695427-040-R-J1-PDC patient-derived colon adenocarcinoma cell line growth inhibition [GQUAD]
# Conditions: for pIC50: curve of first compound; for viability, T/C: stronger effect = lower value
# Excerpt: DNA G-quadruplex Stabilizer Agents in Combinations in Complex Spheroids
# A high-throughput screen of multi-cell type tumor spheroids was designed to identify active combinations of DNA G-quadruplex stabilizer agents and targeted small molecules. Complex spheroids include a stromal component modeled by human endothelial cells (HUVEC) and fibroblasts modeled by human mesenchymal stem cells (MSCs). The concentration ranges selected for each drug and investigational agent were based upon clinically achievable concentrations if the clinical Cmax of the agent was known.
# Compounds. The drugs and investigational agents: pidnarulex (CX-5461; NSC782164), APTO-253 (NSC789042), BRACO-19 (NSC847499), peposertib (NSC802822), ceralasertib (NSC780249), elimusertib (NSC800525), camonsertib (NSC841442), AZD-1390 (NSC803789), olaparib (NSC753686), talazoparib (NSC767125), ART-558 (NSC835418), sotorasib (NSC818433), MRTX-1133 (NSC836407), SN-38 (NSC673596), topotecan (NSC609699), etoposide (NSC141540), doxorubicin (NSC123127), gemcitabine (NSC613327), 5-fluorouracil (NSC19893), paclitaxel (NSC125973), vemurafenib (NSC761431), panobinostat (NSC761190), R-306465 (JNJ-16241199; NSC773264), adavosertib (NSC754352), TP-3654 (NSC805149), carboplatin (NSC241240), KSQ-4279 (NSC840948), and staurosporine (NSC755774) were obtained from the National Cancer Institute (NCI) Developmental Therapeutics Program Chemical Repository (34). The FDA-approved anticancer drug set is available from the NCI Developmental Therapeutics Program. […] The stock solutions were prepared in dimethyl sulfoxide (DMSO, Sigma-Aldrich, St. Louis, MO, cat. D2650) at 800-fold the tested concentration and stored at -70 degrees C prior to their use. All drugs and investigational agents were tested over a range starting from a high concentration at or near the clinical Cmax and decreasing in half-log increments. If the clinical Cmax for an agent had not been determined, the highest concentration tested was 10 microM.
# 2.3 Cell Culture. All cells were maintained in an incubator at 37 degrees C and 5% CO2 with 95% humidity. The PDC lines were cultured according to standard operating procedures established by the NCI PDMR. All PDCs were thawed and cultured in Matrigel-coated flasks prepared with a working solution of 1X Ham's F-12 nutrient mix, without supplementation (Invitrogen, cat. 11765054), 100 U/mL penicillin-streptomycin (Invitrogen, cat. 15140122), and 2.5% Matrigel (Corning Inc., cat. 354248) for the first three passages. The 857933-349-R-J2-PDC line was cultured in 6C/Colon 1B media, which includes advanced DMEM/F-12 (Thermo Fisher Scientific, cat. 12634028), 10 mM HEPES (Thermo Fisher Scientific, cat. 15630080), 1X GlutaMAX supplement (Thermo Fisher Scientific, cat. 35050061), 0.1 mg/mL primocin (InvivoGen, cat. ant-pm-2), 10% defined fetal bovine serum, heat inactivated (HyClone Laboratories Inc., cat. SH30070.03HI), 50% L-WRN conditioned media (ATCC, cat. CRL-3276), 1.25 mM N-Acetyl-L-cysteine (Sigma-Aldrich, cat. A9165), 10 mM nicotinamide (Sigma-Aldrich, cat. N0636), 1X B-27 supplement (Thermo Fisher Scientific, cat. 17504044), 1X N-2 supplement (Thermo Fisher Scientific, cat. 17502048), 10 microM Y-27632 dihydrochloride (Tocris Bioscience, cat. 1254), and 50 ng/mL human EGF recombinant protein (Thermo Fisher Scientific, cat. PHG0311). The 485176-168-R4-J1-PDC line was cultured in Panc media, which includes all 6C/Colon 1B media components plus 100 ng/mL human FGF-10 (Thermo Fisher Scientific, cat. 100-26), 500 nM SB-431542 (Selleckchem, cat. S1067), and gastrin (Tocris, cat. 3006).
# […]
# [1] = second compound 0.0316 µM, first compound 0.0316 µM
# [2] = second compound 0.0316 µM, first compound 0.1 µM
# [3] = second compound 0.0316 µM, first compound 0.316 µM
# [4] = second compound 0.0316 µM, first compound 1 µM
# [5] = second compound 0.0316 µM, first compound 3.16 µM
# [6] = second compound 0.0316 µM, first compound 10 µM
# [7] = second compound 0.1 µM, first compound 0.0316 µM
# [8] = second compound 0.1 µM, first compound 0.1 µM
# [9] = second compound 0.1 µM, first compound 0.316 µM
# [10] = second compound 0.1 µM, first compound 1 µM
# [11] = second compound 0.1 µM, first compound 3.16 µM
# [12] = second compound 0.1 µM, first compound 10 µM
# [13] = second compound 0.316 µM, first compound 0.0316 µM
# [14] = second compound 0.316 µM, first compound 0.1 µM
# [15] = second compound 0.316 µM, first compound 0.316 µM
# [16] = second compound 0.316 µM, first compound 1 µM
# [17] = second compound 0.316 µM, first compound 3.16 µM
# [18] = second compound 0.316 µM, first compound 10 µM
# [19] = second compound 1 µM, first compound 0.0316 µM
# [20] = second compound 1 µM, first compound 0.1 µM
# [21] = second compound 1 µM, first compound 0.316 µM
# [22] = second compound 1 µM, first compound 1 µM
# [23] = second compound 1 µM, first compound 3.16 µM
# [24] = second compound 1 µM, first compound 10 µM
# [25] = second compound 3.16 µM, first compound 0.0316 µM
# [26] = second compound 3.16 µM, first compound 0.1 µM
# [27] = second compound 3.16 µM, first compound 0.316 µM
# [28] = second compound 3.16 µM, first compound 1 µM
# [29] = second compound 3.16 µM, first compound 3.16 µM
# [30] = second compound 3.16 µM, first compound 10 µM
# [31] = second compound 10 µM, first compound 0.0316 µM
# [32] = second compound 10 µM, first compound 0.1 µM
# [33] = second compound 10 µM, first compound 0.316 µM
# [34] = second compound 10 µM, first compound 1 µM
# [35] = second compound 10 µM, first compound 3.16 µM
# [36] = second compound 10 µM, first compound 10 µM
# 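Also: spheroids exposed to compounds for seven days before readout.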
compound,measurement,setting,value
Cc1cccc(N(C)C(=O)C2C(O)CCN2c2nc(C)cc(C(F)(F)F)c2C#N)c1 (centres undefined) + Cc1[nH]c2ccc(F)cc2c1-c1nc2c3cccnc3c3ncccc3c2[nH]1,pIC50,second compound 0.0316 µM,< 5.00
same,pIC50,second compound 0.1 µM,< 5.00
same,pIC50,second compound 0.316 µM,< 5.00
same,pIC50,second compound 1 µM,< 5.00
same,pIC50,second compound 3.16 µM,< 5.00
same,pIC50,second compound 10 µM,< 5.00
same,"viability, T/C",[1],109%
same,"viability, T/C",[2],124%
same,"viability, T/C",[3],105%
same,"viability, T/C",[4],106%
same,"viability, T/C",[5],95.2%
same,"viability, T/C",[6],92.3%
same,"viability, T/C",[7],102%
same,"viability, T/C",[8],88%
same,"viability, T/C",[9],107%
same,"viability, T/C",[10],76.3%
same,"viability, T/C",[11],104%
same,"viability, T/C",[12],86.4%
same,"viability, T/C",[13],93.2%
same,"viability, T/C",[14],91.2%
same,"viability, T/C",[15],98.8%
same,"viability, T/C",[16],76.9%
same,"viability, T/C",[17],91.4%
same,"viability, T/C",[18],80.5%
same,"viability, T/C",[19],79.7%
same,"viability, T/C",[20],89.4%
same,"viability, T/C",[21],85.2%
same,"viability, T/C",[22],82.5%
same,"viability, T/C",[23],93.8%
same,"viability, T/C",[24],87.1%
same,"viability, T/C",[25],70.2%
same,"viability, T/C",[26],75.2%
same,"viability, T/C",[27],84.8%
same,"viability, T/C",[28],91.1%
same,"viability, T/C",[29],95.6%
same,"viability, T/C",[30],72.6%
same,"viability, T/C",[31],68.4%
same,"viability, T/C",[32],78.4%
same,"viability, T/C",[33],83.8%
same,"viability, T/C",[34],79.9%
same,"viability, T/C",[35],88.3%
same,"viability, T/C",[36],72%
Nc1ccn(C2OC(CO)C(O)C2(F)F)c(=O)n1 (centres undefined) + Cc1[nH]c2ccc(F)cc2c1-c1nc2c3cccnc3c3ncccc3c2[nH]1,pIC50,second compound 0.0316 µM,< 5.00
same,pIC50,second compound 0.1 µM,< 5.00
same,pIC50,second compound 0.316 µM,< 5.00
same,pIC50,second compound 1 µM,< 5.00
same,pIC50,second compound 3.16 µM,5.78
same,pIC50,second compound 10 µM,5.84
same,"viability, T/C",[1],78.4%
same,"viability, T/C",[2],74.8%
same,"viability, T/C",[3],71.3%
same,"viability, T/C",[4],54.6%
same,"viability, T/C",[5],56.4%
same,"viability, T/C",[6],46.7%
same,"viability, T/C",[7],92.2%
same,"viability, T/C",[8],75.1%
same,"viability, T/C",[9],59%
same,"viability, T/C",[10],54.1%
same,"viability, T/C",[11],60.5%
same,"viability, T/C",[12],52.1%
same,"viability, T/C",[13],86%
same,"viability, T/C",[14],70.8%
same,"viability, T/C",[15],64.4%
same,"viability, T/C",[16],55.1%
same,"viability, T/C",[17],66.6%
same,"viability, T/C",[18],46.5%
same,"viability, T/C",[19],87.3%
same,"viability, T/C",[20],64.6%
same,"viability, T/C",[21],59.2%
same,"viability, T/C",[22],57.9%
same,"viability, T/C",[23],63.1%
same,"viability, T/C",[24],48.8%
same,"viability, T/C",[25],67.6%
same,"viability, T/C",[26],55.4%
same,"viability, T/C",[27],55.5%
same,"viability, T/C",[28],53.3%
same,"viability, T/C",[29],51.4%
same,"viability, T/C",[30],39.8%
same,"viability, T/C",[31],63.2%
same,"viability, T/C",[32],59.4%
same,"viability, T/C",[33],57.8%
same,"viability, T/C",[34],51%
same,"viability, T/C",[35],43%
same,"viability, T/C",[36],47.4%
